Laboratory results as given in patent US6455540B1, “Methods of use of quinolone compounds against anaerobic pathogenic bacteria” (priority 1999, dated 2002).
Converted amounts (≈) assume the structure as drawn.

Experiments:
Assay in all cases: Agar dilution MIC
[1] = system: Prevotella buccae-oris group; type: cell-based; conditions: 22 isolates
Bacteroides tectum = type: cell-based; conditions: 22 isolates
Porphyromonas canoris = type: cell-based; conditions: 10 isolates
Porphyromonas macaccae = type: cell-based; conditions: 13 isolates
[2] = system: Anaerobiospirillum thomasii; type: cell-based; conditions: 13 isolates
[3] = system: Peptostreptococcus prevotii; type: cell-based; conditions: 9 isolates
[4] = system: Peptostreptococcus magnus; type: cell-based; conditions: 13 isolates
Clostridium ramosum = type: cell-based; conditions: 10 isolates
Fusobacterium russii = type: cell-based
Actinomyces israelii = type: cell-based; conditions: 6 isolates
[5] = system: Actinomyces odontolyticus; type: cell-based; conditions: 10 isolates
[6] = system: Anaerobiospirillum succiniciproducens; type: cell-based; conditions: 3 isolates
[7] = system: Prevotella heparinolytica; type: cell-based; conditions: 16 isolates
Prevotella bivia = type: cell-based; conditions: 21 isolates
Clostridium inocuum = type: cell-based, Clostridium innocuum; conditions: Clostridium, 11 isolates
Porphyromonas spp. = type: cell-based, Porphyromonas cangingivalis, cansulci, circumdentaria, levii; conditions: 11 isolates
[8] = system: Clostridium clostridioforme; type: cell-based; conditions: 11 isolates
[9] = system: Prevotella denticola/loeschii group; type: cell-based; conditions: 6 isolates
[10] = system: Porphyromonas asaccharolyticus; type: cell-based, Porphyromonas asaccharolytica; conditions: 11 isolates
Bacteroides gracilis = type: cell-based, Bacteroides gracilis (Campylobacter gracilis); conditions: Campylobacter gracilis, 11 isolates
Prevotella intermedia = type: cell-based; conditions: 11 isolates
[11] = system: Prevotella melaninogenica; type: cell-based; conditions: 12 isolates
Fusobacterium varium = type: cell-based; conditions: Fusobacterium varium, 17 isolates
[12] = system: Fusobacterium spp. group 2; type: cell-based, Fusobacterium mortiferum, necrogenes, ulcerans; conditions: Fusobacterium, 12 isolates
Bilophila wadsworthia = type: cell-based; conditions: Bilophila wadsworthia, 16 isolates, agar supplemented with pyruvate
[13] = system: Fusobacterium spp group 1; type: cell-based; conditions: 19 isolates
Bacteroides ureolyticus = type: cell-based; conditions: Campylobacter ureolyticus, 17 isolates
[14] = system: Peptostreptococcus micros; type: cell-based; conditions: 12 isolates
Veillonella spp. = type: cell-based; conditions: Veillonella, 24 isolates
Porphyromonas gingivalis = type: cell-based; conditions: 13 isolates
[15] = system: Peptostreptococcus asaccharolyticus; type: cell-based; conditions: 11 isolates
[16] = Porphyromonas, read-out: Minimal Inhibitory Concentration 50% (MIC50)
[17] = Porphyromonas, read-out: Minimal Inhibitory Concentration 90% (MIC90)
[18] = read-out: Minimal Inhibitory Concentration 90% (MIC90)
[19] = read-out: Minimal Inhibitory Concentration 50% (MIC50)

Q: How did the “Minimal Inhibitory Concentration Range” value [1] turn out when `N[C@@H]1[C@H]2CN(c3nc4c(cc3F)c(=O)c(C(=O)O)cn4-c3ccc(F)cc3F)C[C@@H]12` [Trovafloxacin] was run?
A: 0.25 to 4 µg/mL

Q: And the MIC90 ([1]; Prevotella, read-out: Minimal Inhibitory Concentration 90% (MIC90))?
A: 2 µg/mL (≈ 4.8 µM)

Q: What about the MIC50 ([1]; Prevotella, read-out: Minimal Inhibitory Concentration 50% (MIC50)) of the same compound?
A: 1 µg/mL (≈ 2.4 µM)

Q: And the “Minimal Inhibitory Concentration Range” value (Bacteroides tectum)?
A: 0.03 to 0.125 µg/mL

Q: And the MIC90 (Bacteroides tectum; Bacteroides pyogenes, read-out: Minimal Inhibitory Concentration 90% (MIC90))?
A: 0.125 µg/mL (≈ 0.3 µM)

Q: What about the MIC50 (Bacteroides tectum; Bacteroides pyogenes, read-out: Minimal Inhibitory Concentration 50% (MIC50)) of the same compound?
A: 0.06 µg/mL (≈ 0.144 µM)

Q: What about the “Minimal Inhibitory Concentration Range” value (Porphyromonas canoris) of the same compound?
A: 0.06 to 0.5 µg/mL

Q: And the MIC50 (Porphyromonas canoris; Porphyromonas canoris, read-out: Minimal Inhibitory Concentration 50% (MIC50))?
A: 0.25 µg/mL (≈ 0.6 µM)

Q: And the MIC90 (Porphyromonas canoris; Porphyromonas canoris, read-out: Minimal Inhibitory Concentration 90% (MIC90))?
A: 0.5 µg/mL (≈ 1.2 µM)

Q: And the “Minimal Inhibitory Concentration Range” value (Porphyromonas macaccae)?
A: 0.03 to 0.125 µg/mL

Q: And the MIC50 (Porphyromonas macaccae; [16])?
A: 0.06 µg/mL (≈ 0.144 µM)

Q: And the MIC90 (Porphyromonas macaccae; [17])?
A: 0.125 µg/mL (≈ 0.3 µM)

Q: And the “Minimal Inhibitory Concentration Range” value [2]?
A: 0.06 to 0.5 µg/mL

Q: What about the MIC50 ([2]; Anaerobiospirillum thomasii, read-out: Minimal Inhibitory Concentration 50% (MIC50)) of the same compound?
A: 0.125 µg/mL (≈ 0.3 µM)

Q: And the MIC90 ([2]; Anaerobiospirillum thomasii, read-out: Minimal Inhibitory Concentration 90% (MIC90))?
A: 0.25 µg/mL (≈ 0.6 µM)

Q: And the “Minimal Inhibitory Concentration Range” value [3]?
A: 0.25 to 1 µg/mL

Q: What about the MIC50 ([3]; Anaerococcus prevotii, read-out: Minimal Inhibitory Concentration 50% (MIC50)) of the same compound?
A: 0.25 µg/mL (≈ 0.6 µM)

Q: And the “Minimal Inhibitory Concentration Range” value [4]?
A: 0.06 to 0.25 µg/mL

Q: What about the MIC50 ([4]; Finegoldia magna, read-out: Minimal Inhibitory Concentration 50% (MIC50)) of the same compound?
A: 0.125 µg/mL (≈ 0.3 µM)

Q: And the MIC90 ([4]; Finegoldia magna, read-out: Minimal Inhibitory Concentration 90% (MIC90))?
A: 0.25 µg/mL (≈ 0.6 µM)

Q: What about the “Minimal Inhibitory Concentration Range” value (Clostridium ramosum) of the same compound?
A: 0.25 to 8 µg/mL

Q: What about the MIC50 (Clostridium ramosum; Thomasclavelia ramosa, read-out: Minimal Inhibitory Concentration 50% (MIC50)) of the same compound?
A: 0.5 µg/mL (≈ 1.2 µM)

Q: What about the MIC90 (Clostridium ramosum; Thomasclavelia ramosa, read-out: Minimal Inhibitory Concentration 90% (MIC90)) of the same compound?
A: 2 µg/mL (≈ 4.8 µM)

Q: What about the “Minimal Inhibitory Concentration Range” value (Fusobacterium russii) of the same compound?
A: 0.5 to 4 µg/mL

Q: And the MIC50 (Fusobacterium russii; Fusobacterium russii, read-out: Minimal Inhibitory Concentration 50% (MIC50))?
A: 4 µg/mL (≈ 9.61 µM)

Q: What about the MIC90 (Fusobacterium russii; Fusobacterium russii, read-out: Minimal Inhibitory Concentration 90% (MIC90)) of the same compound?
A: 4 µg/mL (≈ 9.61 µM)

Q: And the “Minimal Inhibitory Concentration Range” value (Actinomyces israelii)?
A: 0.5 to 2 µg/mL

Q: And the MIC50 (Actinomyces israelii; Actinomyces israelii, read-out: Minimal Inhibitory Concentration 50% (MIC50))?
A: 1 µg/mL (≈ 2.4 µM)

Q: What about the “Minimal Inhibitory Concentration Range” value [5] of the same compound?
A: 2 to 4 µg/mL

Q: What about the MIC90 ([5]; Schaalia odontolytica, read-out: Minimal Inhibitory Concentration 90% (MIC90)) of the same compound?
A: 4 µg/mL (≈ 9.61 µM)

Q: And the MIC50 ([5]; Schaalia odontolytica, read-out: Minimal Inhibitory Concentration 50% (MIC50))?
A: 4 µg/mL (≈ 9.61 µM)

Q: And the “Minimal Inhibitory Concentration Range” value [6]?
A: 0.5 to 2 µg/mL

Q: And the MIC50 ([6]; Anaerobiospirillum succiniciproducens, read-out: Minimal Inhibitory Concentration 50% (MIC50))?
A: 1 µg/mL (≈ 2.4 µM)

Q: What about the “Minimal Inhibitory Concentration Range” value [7] of the same compound?
A: 0.125 to 0.25 µg/mL

Q: What about the MIC90 ([7]; Prevotella heparinolytica, read-out: Minimal Inhibitory Concentration 90% (MIC90)) of the same compound?
A: 0.25 µg/mL (≈ 0.6 µM)

Q: And the MIC50 ([7]; Prevotella heparinolytica, read-out: Minimal Inhibitory Concentration 50% (MIC50))?
A: 0.125 µg/mL (≈ 0.3 µM)

Q: What about the “Minimal Inhibitory Concentration Range” value (Prevotella bivia) of the same compound?
A: 1 to 4 µg/mL

Q: What about the MIC90 (Prevotella bivia; Prevotella bivia, read-out: Minimal Inhibitory Concentration 90% (MIC90)) of the same compound?
A: 2 µg/mL (≈ 4.8 µM)

Q: And the MIC50 (Prevotella bivia; Prevotella bivia, read-out: Minimal Inhibitory Concentration 50% (MIC50))?
A: 2 µg/mL (≈ 4.8 µM)

Q: What about the MIC90 (Clostridium inocuum; [18]) of the same compound?
A: 8 µg/mL (≈ 19.2 µM)

Q: What about the MIC50 (Clostridium inocuum; [19]) of the same compound?
A: 0.5 µg/mL (≈ 1.2 µM)

Q: What about the “Minimal Inhibitory Concentration Range” value (Porphyromonas spp.) of the same compound?
A: 0.06 to 1 µg/mL

Q: And the MIC50 (Porphyromonas spp.; [16])?
A: 0.25 µg/mL (≈ 0.6 µM)

Q: And the MIC90 (Porphyromonas spp.; [17])?
A: 1 µg/mL (≈ 2.4 µM)

Q: And the “Minimal Inhibitory Concentration Range” value [8]?
A: 1 to 8 µg/mL

Q: And the MIC90 ([8]; Clostridium, read-out: Minimal Inhibitory Concentration 90% (MIC90))?
A: 4 µg/mL (≈ 9.61 µM)

Q: And the MIC50 ([8]; Clostridium, read-out: Minimal Inhibitory Concentration 50% (MIC50))?
A: 4 µg/mL (≈ 9.61 µM)

Q: And the “Minimal Inhibitory Concentration Range” value [9]?
A: 0.06 to 4 µg/mL

Q: What about the MIC50 ([9]; Prevotella denticola, read-out: Minimal Inhibitory Concentration 50% (MIC50)) of the same compound?
A: 1 µg/mL (≈ 2.4 µM)

Q: And the “Minimal Inhibitory Concentration Range” value [10]?
A: 0.03 to 0.25 µg/mL

Q: What about the MIC50 [10, 16] of the same compound?
A: 0.25 µg/mL (≈ 0.6 µM)

Q: What about the MIC90 [10, 17] of the same compound?
A: 0.25 µg/mL (≈ 0.6 µM)

Q: What about the MIC90 (Bacteroides gracilis; [18]) of the same compound?
A: 0.5 µg/mL (≈ 1.2 µM)

Q: What about the MIC50 (Bacteroides gracilis; [19]) of the same compound?
A: 0.03 µg/mL (≈ 0.0721 µM)

Q: And the “Minimal Inhibitory Concentration Range” value (Prevotella intermedia)?
A: 0.06 to 1 µg/mL

Q: And the MIC90 (Prevotella intermedia; Prevotella intermedia, read-out: Minimal Inhibitory Concentration 90% (MIC90))?
A: 1 µg/mL (≈ 2.4 µM)

Q: And the MIC50 (Prevotella intermedia; Prevotella intermedia, read-out: Minimal Inhibitory Concentration 50% (MIC50))?
A: 0.5 µg/mL (≈ 1.2 µM)

Q: And the “Minimal Inhibitory Concentration Range” value [11]?
A: 0.06 to 8 µg/mL

Q: What about the MIC90 ([11]; Prevotella melaninogenica, read-out: Minimal Inhibitory Concentration 90% (MIC90)) of the same compound?
A: 4 µg/mL (≈ 9.61 µM)

Q: What about the MIC50 ([11]; Prevotella melaninogenica, read-out: Minimal Inhibitory Concentration 50% (MIC50)) of the same compound?
A: 1 µg/mL (≈ 2.4 µM)

Q: And the MIC50 (Fusobacterium varium; [19])?
A: 4 µg/mL (≈ 9.61 µM)

Q: And the MIC90 (Fusobacterium varium; [18])?
A: > 8 µg/mL

Q: What about the MIC50 [12, 19] of the same compound?
A: 4 µg/mL (≈ 9.61 µM)

Q: What about the MIC90 [12, 18] of the same compound?
A: 4 µg/mL (≈ 9.61 µM)

Q: And the MIC90 (Bilophila wadsworthia; [18])?
A: > 8 µg/mL

Q: And the MIC50 (Bilophila wadsworthia; [19])?
A: 0.5 µg/mL (≈ 1.2 µM)

Q: And the “Minimal Inhibitory Concentration Range” value [13]?
A: 0.25 to 4 µg/mL

Q: And the MIC50 ([13]; Fusobacterium, GROUP1, read-out: Minimal Inhibitory Concentration 50% (MIC50))?
A: 0.5 µg/mL (≈ 1.2 µM)

Q: And the MIC90 ([13]; Fusobacterium, GROUP1, read-out: Minimal Inhibitory Concentration 90% (MIC90))?
A: 4 µg/mL (≈ 9.61 µM)

Q: And the MIC90 (Bacteroides ureolyticus; [18])?
A: 4 µg/mL (≈ 9.61 µM)

Q: And the MIC50 (Bacteroides ureolyticus; [19])?
A: 0.06 µg/mL (≈ 0.144 µM)

Q: What about the “Minimal Inhibitory Concentration Range” value [14] of the same compound?
A: 0.03 to 0.125 µg/mL

Q: And the MIC50 ([14]; Parvimonas micra, read-out: Minimal Inhibitory Concentration 50% (MIC50))?
A: 0.06 µg/mL (≈ 0.144 µM)

Q: What about the MIC90 ([14]; Parvimonas micra, read-out: Minimal Inhibitory Concentration 90% (MIC90)) of the same compound?
A: 0.06 µg/mL (≈ 0.144 µM)

Q: And the MIC90 (Veillonella spp.; [18])?
A: > 8 µg/mL

Q: And the MIC50 (Veillonella spp.; [19])?
A: 0.25 µg/mL (≈ 0.6 µM)

Q: And the “Minimal Inhibitory Concentration Range” value (Porphyromonas gingivalis)?
A: 0.03 to 0.06 µg/mL

Q: What about the MIC50 (Porphyromonas gingivalis; Porphyromonas gingivalis, read-out: Minimal Inhibitory Concentration 50% (MIC50)) of the same compound?
A: 0.06 µg/mL (≈ 0.144 µM)

Q: And the MIC90 (Porphyromonas gingivalis; Porphyromonas gingivalis, read-out: Minimal Inhibitory Concentration 90% (MIC90))?
A: 0.06 µg/mL (≈ 0.144 µM)

Q: What about the “Minimal Inhibitory Concentration Range” value [15] of the same compound?
A: 0.5 to 2 µg/mL

Q: What about the MIC50 ([15]; Peptoniphilus asaccharolyticus, read-out: Minimal Inhibitory Concentration 50% (MIC50)) of the same compound?
A: 1 µg/mL (≈ 2.4 µM)

Q: And the MIC90 ([15]; Peptoniphilus asaccharolyticus, read-out: Minimal Inhibitory Concentration 90% (MIC90))?
A: 1 µg/mL (≈ 2.4 µM)
